Measurements as given in ChEMBL document CHEMBL6109057, “Synthesis of harmaline N-9 derivatives and investigation of in vitro anticancer activity” (Bioorg Med Chem Lett, 2025).
pIC50: −log10 of the molar value. Active and inactive are the calls of the source. The calls are words filed in the database; no cut-off is given here.

Key:
[1] = tested on: MCF7; assay: Antiproliferative activity against human MCF7 cells assessed as reduction in cell viability at 50 uM measured after 24 hrs; type: functional, cell-based
[2] = tested on: HCT-116; assay: Antiproliferative activity against human HCT-116 cells assessed as reduction in cell viability at 50 uM measured after 24 hrs; type: functional, cell-based
[3] = tested on: MGC-803; assay: Antiproliferative activity against human MGC-803 cells assessed as reduction in cell viability at 50 uM measured after 24 hrs; type: functional, cell-based
[4] = tested on: HCT-116; assay: Antiproliferative activity against human HCT-116 cells assessed as reduction in cell viability measured after 24 hrs; type: functional, cell-based; settings: HCT-116, 24 h
[5] = tested on: HCT-116; assay: Antiproliferative activity against human HCT-116 cells assessed as cell viability at 50 uM measured after 24 hrs relative to control; type: functional; settings: read-out: Activity
[6] = tested on: MCF7; assay: Antiproliferative activity against human MCF7 cells assessed as cell viability at 50 uM measured after 24 hrs relative to control; type: functional; settings: read-out: Activity
[7] = tested on: MGC-803; assay: Antiproliferative activity against human MGC-803 cells assessed as reduction in cell viability measured after 24 hrs; type: functional, cell-based; settings: MGC-803, 24 h
[8] = tested on: MCF7; assay: Antiproliferative activity against human MCF7 cells assessed as reduction in cell viability measured after 24 hrs; type: functional, cell-based; settings: MCF7, 24 h
[9] = tested on: MGC-803; assay: Antiproliferative activity against human MGC-803 cells assessed as cell viability at 50 uM measured after 24 hrs relative to control; type: functional; settings: read-out: Activity
[10] = tested on: MGC-803; assay: Effect on metabolic changes in human MGC-803 cells assessed as upregulation of leucine level at 4 uM by 1H-NMR analysis; type: functional, cell-based
[11] = tested on: MGC-803; assay: Effect on metabolic changes in human MGC-803 cells assessed as down regulation of choline phosphate level at 4 uM by 1H-NMR analysis; type: functional, cell-based
[12] = tested on: MGC-803; assay: Antimigratory activity against human MGC-803 cells assessed as migration rate at 2.5 uM measured after 48 hrs scratch assay (reference value: 63 +/- 1.61%); type: functional
[13] = tested on: MGC-803; assay: Antimigratory activity against human MGC-803 cells assessed as migration rate at 5 uM measured after 24 hrs scratch assay (reference value: 40.72 +/- 0.86%); type: functional
[14] = tested on: MGC-803; assay: Antimigratory activity against human MGC-803 cells assessed as increase in number of floating cells at 10 uM measured after 24 hrs by scratch assay; type: functional, cell-based
[15] = tested on: MGC-803; assay: Effect on metabolic changes in human MGC-803 cells assessed as down regulation of taurine level at 4 uM by 1H-NMR analysis; type: functional, cell-based
[16] = tested on: MGC-803; assay: Antimigratory activity against human MGC-803 cells assessed as migration rate at 2.5 uM measured after 24 hrs scratch assay (reference value: 40.72 +/- 0.86%); type: functional
[17] = Cytotoxicity against HEK293FT cells assessed as reduction in cell viability measured after 24 hrs; type: toxicity, cell-based; settings: human
[18] = Inhibition of cell clone formation in human MGC-803 cells assessed as percentage of area of cell clones at 1.5 uM (reference value: 1 +/- 0.02%); type: functional; set-up: scale not given: the % may be the effect or the level left
[19] = tested on: MGC-803; assay: Antimigratory activity against human MGC-803 cells assessed as increase in aggregated dead cells at 10 uM measured after 24 hrs by scratch assay; type: functional, cell-based
[20] = tested on: MGC-803; assay: Effect on metabolic changes in human MGC-803 cells assessed as upregulation of glycine level at 4 uM by 1H-NMR analysis; type: functional, cell-based
[21] = tested on: MGC-803; assay: Antimigratory activity against human MGC-803 cells assessed as increase in large number of dead cells at 10 uM measured after 48 hrs by scratch assay; type: functional, cell-based
[22] = Inhibition of cell clone formation in human MGC-803 cells assessed as percentage of area of cell clones at 2.5 uM (reference value: 1 +/- 0.02%); type: functional; set-up: scale not given: the % may be the effect or the level left
[23] = tested on: MGC-803; assay: Effect on metabolic changes in human MGC-803 cells assessed as down regulation of NAD+ level at 4 uM by 1H-NMR analysis; type: functional, cell-based
[24] = tested on: MGC-803; assay: Effect on metabolic changes in human MGC-803 cells assessed as down regulation of aspartic acid level at 4 uM by 1H-NMR analysis; type: functional, cell-based
[25] = tested on: MGC-803; assay: Effect on metabolic changes in human MGC-803 cells assessed as down regulation of AMP level at 4 uM by 1H-NMR analysis; type: functional, cell-based
[26] = Inhibition of cell clone formation in human MGC-803 cells assessed as percentage of area of cell clones at 1 uM (reference value: 1 +/- 0.02%); type: functional; set-up: scale not given: the % may be the effect or the level left
[27] = tested on: MGC-803; assay: Effect on metabolic changes in human MGC-803 cells assessed as down regulation of GSH level at 4 uM by 1H-NMR analysis; type: functional, cell-based
[28] = tested on: MGC-803; assay: Effect on metabolic changes in human MGC-803 cells assessed as down regulation of ADP level at 4 uM by 1H-NMR analysis; type: functional, cell-based
[29] = tested on: MGC-803; assay: Antimigratory activity against human MGC-803 cells assessed as migration rate at 5 uM measured after 48 hrs scratch assay (reference value: 63 +/- 1.61%); type: functional
[30] = tested on: MGC-803; assay: Effect on metabolic changes in human MGC-803 cells assessed as down regulation of creatine level at 4 uM by 1H-NMR analysis; type: functional, cell-based
[31] = tested on: HeLa; assay: Antiproliferative activity against human HeLa cells assessed as reduction in cell viability measured after 48 hrs by 3-(4,5-dimethylthiazol-2-yl)-2,5-diphenyltetrazolium bromide assay; type: functional, cell-based
[32] = tested on: A549; assay: Antiproliferative activity against human A549 cells assessed as reduction in cell viability measured after 48 hrs by MTT assay; type: functional, cell-based; settings: A549, 48 h
[33] = tested on: 4T1; assay: Antiproliferative activity against mouse 4T1 cells assessed as reduction in cell viability measured after 24 hrs by MTT assay; type: functional, cell-based; settings: 4T1, 24 h
[34] = tested on: SGC-7901; assay: Antiproliferative activity against human SGC-7901 cells assessed as reduction in cell viability measured after 48 hrs by MTT assay; type: functional, cell-based; settings: SGC-7901, 48 h
[35] = tested on: U-87 MG; assay: Antiproliferative activity against human U87 cells assessed as reduction in cell viability measured after 24 hrs; type: functional, cell-based, U-87MG ATCC
[36] = tested on: HepG2; assay: Antiproliferative activity against human HepG2 cells assessed as reduction in cell viability measured after 48 hrs by 3-(4,5-dimethylthiazol-2-yl)-2,5-diphenyltetrazolium bromide assay; type: functional, cell-based; settings: HepG2, 48 h
[37] = tested on: NCI-H1299; assay: Antiproliferative activity against human NCI-H1299 cells assessed as reduction in cell viability measured after 48 hrs by MTT assay; type: functional, cell-based; settings: NCI-H1299, 48 h
[38] = tested on: U-87 MG; assay: Antiproliferative activity against human U87 cells assessed as reduction in cell viability measured after 48 hrs; type: functional, cell-based, U-87MG ATCC

COc1ccc2c3c(n(Cc4ccc(C)cc4)c2c1)C(C)=NCC3
Activity [1]: Active | Activity [2]: Active | Activity [3]: Active

COc1ccc2c3c(n(CCCCCCn4c5cc(OC)ccc5c5ccnc(C)c54)c2c1)C(C)=NCC3
Activity [1]: Active | Activity [2]: Active | Activity [3]: Active

COc1ccc2c3c(n(Cc4cccc(C)c4)c2c1)C(C)=NCC3
Activity [1]: Active | Activity [2]: Active | Activity [3]: Active

COc1ccc2c3c(n(CCCCCCBr)c2c1)C(C)=NCC3
pIC50 [4]: 5.05 | viability at 50 µM [5]: < 10% | viability at 50 µM [6]: < 10% | pIC50 [7]: 4.81 | pIC50 [8]: 4.73 | viability at 50 µM [9]: < 10%

COc1ccc2c3ccnc(C)c3n(CCCCCn3c4cc(OC)ccc4c4ccnc(C)c43)c2c1
viability at 50 µM [5]: ~31% | viability at 50 µM [6]: ~35% | viability at 50 µM [9]: ~59%

COC(=O)CCCn1c2c(c3ccc(OC)cc31)CCN=C2C
Activity [1]: Active | Activity [2]: Active | Activity [3]: Active

C=CCn1c2c(c3ccc(OC)cc31)CCN=C2C
Activity [1]: Active | Activity [2]: Active | Activity [3]: Active

COc1ccc2c3c(n(C/C=C/c4ccccc4)c2c1)C(C)=NCC3
Activity [1]: Active | Activity [2]: Active | Activity [3]: Active

COc1ccc2c3c(n(Cc4ccccc4F)c2c1)C(C)=NCC3
Activity [1]: Active | Activity [2]: Active | Activity [3]: Active

COc1ccc2c3c(n(CCCCCn4c5cc(OC)ccc5c5ccnc(C)c54)c2c1)C(C)=NCC3
Activity [10]: Active | Activity [11]: Active | Activity [12]: 44.14% | Activity [13]: 20.76% | Activity [14]: Active | pIC50 [4]: 5.42 | Activity [15]: Active | viability at 50 µM [5]: < 10% | Activity [16]: 25.5% | IC50 at 24 h [17]: 47.6 µM | Activity [18]: 0.33% | Activity [19]: Active | Activity [20]: Active | Activity [21]: Active | Activity [22]: 0.02% | Activity [23]: Active | viability at 50 µM [6]: < 10% | Activity [24]: Active | Activity [25]: Active | Activity [26]: 0.56% | Activity [27]: Active | pIC50 [7]: 5.28 | pIC50 [8]: 5.06 | Activity [28]: Active | viability at 50 µM [9]: < 10% | Activity [29]: 33.65% | Activity [30]: Active

COc1ccc2c3c([nH]c2c1)C(C)=NCC3 [HARMALINE]
pIC50 [31]: 4.55 | pIC50 [32]: 4.17 | viability at 50 µM [5]: ~75% | pIC50 [33]: 4.51 | pIC50 [34]: 5.39 | viability at 50 µM [6]: ~71% | pIC50 [35]: 3.68 | pIC50 [36]: 4.95 | pIC50 [37]: 4.32 | pIC50 [38]: 3.90 | viability at 50 µM [9]: ~120%

COc1ccc2c3c(n(CCCCn4c5cc(OC)ccc5c5ccnc(C)c54)c2c1)C(C)=NCC3
pIC50 [4]: 5.35 | viability at 50 µM [5]: < 10% | viability at 50 µM [6]: < 10% | pIC50 [7]: 4.99 | pIC50 [8]: 4.73 | viability at 50 µM [9]: < 10%
